According to patent US20100035984A1, “Use of an antibacterial compound which is derived from alliaceae, as a natural additive in animal feed” (DMC Research Center, S.L., priority 2006, published 2010):
Several values for one entry are separate records, joined by “and”; a condition that tells them apart may be missing. Equal values may be shown once. Marks after values point to notes of the source that are not given here.

Experiments:
Assay type in all cases: cell-based
lactobacilli = assay: In vitro fermentation of pig feces, lactobacilli count (Example 2); settings: 200 mg/L, 24 hours
Procedure: (§1) The mean values affected by different indexes indicate significant differences (p<0.05). The vertical axis of the graph determines the log 10(cfu/g feces) and the horizontal axis determines the compound. The described assays are carried out using complete bacterial inocula obtained from feces of piglets in post-weaning stage. Two of the compounds (referenced as PTS and as PTSO) are assayed in a lower dose range (50-400 mg/L).

bifidobacteria = assay: In vitro fermentation of pig feces, bifidobacteria count (Example 2); settings: 200 mg/L, 24 hours
Procedure: as §1

[1] = system: microbiota of the ruminal inoculum (ruminal fluid of goats); assay: In vitro ruminal degradation of experimental diets (Example 3); settings: for DDM (degradability of dry matter), mean / DOM (degradability of organic matter), mean: 48 hours; for Mean DDM / Mean DOM / DDM (degradation of dry matter) / DOM (degradation of organic matter): diet D1, 24 hours
Procedure: The Effect of Different Doses of the Compounds Object of Study on the Ruminal Degradation of Two Different Diets the Composition of which is in Table 1 is Studied The diets consist of alfalfa hay (standard maintenance diet for ruminant animals) or of a mixture of 50% alfalfa hay and a commercial concentrate (standard lactation diet for ruminant animals). In vitro incubation is performed using ruminal fluid of goats as inoculum.

[2] = system: ruminal fermentation (methane-producing microorganisms); assay: Production of gas by in vitro fermentation of the diets (Example 4)
Procedure: The effect of different doses of the compounds object of study on the production of gas promoted by in vitro fermentation for 24 and 48 hours of the diets the composition of which is included in Table 1 is studied.

[3] = Alfalfa hay + concentrate, 10 ppm
[4] = Alfalfa hay + concentrate, 25 ppm
[5] = Alfalfa hay + concentrate, 50 ppm
[6] = Alfalfa hay + concentrate, 300 ppm
[7] = Alfalfa hay + concentrate, 750 ppm
[8] = Alfalfa hay + concentrate, 1000 ppm
[9] = Alfalfa hay + concentrate, 2000 ppm
[10] = diet D1, 50 to 750 ppm, 24 hours in vitro incubation
[11] = diet D1, 48 hours, 10 ppm, replicates
[12] = diet D1, 48 hours, 25 ppm, replicates
[13] = diet D1, 48 hours, concentration 50, replicates
[14] = diet D1, 48 hours, concentration 300, replicates
[15] = diet D1, 48 hours, concentration 750, replicates
[16] = diet D1, 48 hours, concentration 1000, replicates
[17] = diet D2, 48 hours, 10 ppm, replicates
[18] = diet D2, 48 hours, 25 ppm, replicates
[19] = diet D2, 48 hours, concentration 50, replicates
[20] = diet D2, 48 hours, concentration 300, replicates
[21] = diet D2, 48 hours, concentration 750, replicates
[22] = diet D2, 48 hours, concentration 1000, replicates
[23] = diet D2, 48 hours, concentration 2000, replicates

## propyl propylthiosulfinate [PTS]
lactobacilli
  lactobacilli logarithmic reduction in the population: approximately 50%
bifidobacteria
  bifidobacteria logarithmic reduction in the population: approximately 50%
[1]; [3]
  DDM (degradability of dry matter), mean: 63.9^ab
  DOM (degradability of organic matter), mean: 63.9^ab
[1]; [4]
  DDM (degradability of dry matter), mean: 59.4^b
  DOM (degradability of organic matter), mean: 59.7^b
[1]; [5]
  DDM (degradability of dry matter), mean: 59.8^b
  DOM (degradability of organic matter), mean: 59.8^b
[1]; [6]
  DDM (degradability of dry matter), mean: 48.3^c
  DOM (degradability of organic matter), mean: 47.8^c
[1]; [7]
  DDM (degradability of dry matter), mean: 43.5^c
  DOM (degradability of organic matter), mean: 45.5^c
[1]; [8]
  DDM (degradability of dry matter), mean: 45.6^c
  DOM (degradability of organic matter), mean: 45.1^c
[1]; [9]
  DDM (degradability of dry matter), mean: 45.3^c
  DOM (degradability of organic matter), mean: 38.7^d
[1]; Alfalfa hay, 10 ppm
  DDM (degradability of dry matter), mean: 54.2^a
  DOM (degradability of organic matter), mean: 54.5^a
[1]; Alfalfa hay, 25 ppm
  DDM (degradability of dry matter), mean: 52.3^a
  DOM (degradability of organic matter), mean: 42.9^bc
[1]; Alfalfa hay, 50 ppm
  DDM (degradability of dry matter), mean: 46.6^b
  DOM (degradability of organic matter), mean: 46.7^b
[1]; Alfalfa hay, 300 ppm
  DDM (degradability of dry matter), mean: 40.6^c
  DOM (degradability of organic matter), mean: 41.0^c
[1]; Alfalfa hay, 750 ppm
  DDM (degradability of dry matter), mean: 39.6^c
  DOM (degradability of organic matter), mean: 39.2^c
[1]; Alfalfa hay, 1000 ppm
  DDM (degradability of dry matter), mean: 39.1^c
  DOM (degradability of organic matter), mean: 38.8^c
[1]; Alfalfa hay, 2000 ppm
  DDM (degradability of dry matter), mean: 39.6^c
  DOM (degradability of organic matter), mean: 40.0^c
[1]; Table 4: diet D1, 48 hours, concentration 2000, replicates
  DDM: 40.2% and 38.9%
[1]; [10]
  effect on degradation of dry matter: reduction of the degradation of dry matter
  effect on degradation of organic matter: do not affect
[1]; 50 ppm
  Mean DDM: 37.1%
  Mean DOM: 38.5%
[1]; 50 ppm, replicates
  DDM (degradation of dry matter): 37.7% (2×) and 37.9% and 34.1% and 35.6% and 39.3%
  DOM (degradation of organic matter): 38.0% and 38.9%
[1]; 300 ppm
  Mean DDM: 37.4%
[1]; 300 ppm, replicates
  DDM (degradation of dry matter): 38.5% and 40.4% and 37.6% and 36.0% and 35.7% and 36.2%
[1]; 750 ppm
  Mean DDM: 39.5%
  Mean DOM: 38.1%
[1]; 750 ppm, replicates
  DDM (degradation of dry matter): 40.8% and 37.7% and 43.2% and 39.5% and 37.9% and 38.0%
  DOM (degradation of organic matter): 39.4% and 36.8%
[1]; [11]
  DDM: 54.5% and 53.9%
  DOM: 54.8% and 54.2%
[1]; [12]
  DDM: 52.0% and 52.5%
  DOM: 43.0% and 42.9%
[1]; [13]
  DDM: 46.2% and 46.9%
  DOM: 47.5% and 45.9%
[1]; [14]
  DDM: 41.8% and 39.4%
  DOM: 42.5% and 39.5%
[1]; [15]
  DDM: 39.6% and 39.7%
  DOM: 38.6% and 39.7%
[1]; [16]
  DDM: 39.1%
  DOM: 38.6% and 38.9%
[1]; diet D1, 48 hours, concentration 2000, replicates
  DOM: 40.3% and 39.7%
[1]; [17]
  DDM: 64.0% and 63.9%
  DOM: 63.8% and 64.0%
[1]; [18]
  DDM: 57.4% and 61.4%
  DOM: 57.6% and 61.8%
[1]; [19]
  DDM: 60.9% and 58.7%
  DOM: 60.9% and 58.8%
[1]; [20]
  DDM: 49.3% and 47.2%
  DOM: 48.6% and 47.1%
[1]; [21]
  DDM: 44.8% and 42.2%
  DOM: 46.5% and 44.6%
[1]; [22]
  DDM: 46.1% and 45.1%
  DOM: 45.6% and 44.7%
[1]; [23]
  DDM: 45.7% and 44.9%
  DOM: 38.9% and 38.5%
[2]
  inhibitory effect on production of fermentation gas, dependence on dose: dose-dependent
[2]; 24 and 48 hours
  inhibitory effect on production of fermentation gas, dependence on time: time-dependent
[2]; diet D2
  doses at which the inhibitory effect on production of fermentation gas is observed: 10 ppm
